Measurements as given in patent publication US5508428A, “Spiro compound” (Daiichi Phamaceutical Co., Ltd., priority 1988, dated 1996).
In brackets after ≈: the same amount, converted by molar mass.

Legend:
Assay type in all cases: cell-based
S. aureus, 209P = experiment: Antibacterial activity (MIC), S. aureus 209P; conditions: Staphylococcus aureus
Description: (§1) The antibacterial activity assays were performed by the method specified by Japan Society of Chemotherapy (Chemotherapy 29(1), 76 (1981). The table of antibacterial activity is followed by the reaction schemes for the synthesis of various spiro ring-containing cyclic amine derivatives, intermediate compounds for synthesis of quinolone rings and synthesis of various spiro compounds.

Pr. mirabillis, IF0-3849 = experiment: Antibacterial activity (MIC), Pr. mirabillis IF0-3849
Description: as §1

Ps. aeruginosa, 32121 = experiment: Antibacterial activity (MIC), Ps. aeruginosa 32121; conditions: Pseudomonas aeruginosa, 32121, Ps. aeruginosa
Description: as §1

Pr. vulgaris, 08601 = experiment: Antibacterial activity (MIC), Pr. vulgaris 08601; conditions: Proteus vulgaris
Description: as §1

S. flexneri, 2A 5503 = experiment: Antibacterial activity (MIC), S. flexneri 2A 5503; conditions: Shigella flexneri, 2A5503
Description: as §1

E. coli, NIHJ = experiment: Antibacterial activity (MIC), E. coli NIHJ; conditions: Escherichia coli
Description: as §1

Str. pyogenes, G-36 = experiment: Antibacterial activity (MIC), Str. pyogenes G-36; conditions: Streptococcus pyogenes, G36, Str. pyogenes
Description: as §1

S. epidermidis, 56500 = experiment: Antibacterial activity (MIC), S. epidermidis 56500; conditions: for MIC: Staphylococcus epidermidis, 56500, S. epidermidis
Description: as §1

Ps. aeruginosa, 32104 = experiment: Antibacterial activity (MIC), Ps. aeruginosa 32104; conditions: for MIC: Pseudomonas aeruginosa, 32104, Ps. aeruginosa
Description: as §1

Ser. marcescens, 10100 = experiment: Antibacterial activity (MIC), Ser. marcescens 10100; conditions: Serratia marcescens, 10100, Ser. marcescens
Description: as §1

[1] = tested on: Ps. maltophilia, IID-1275; experiment: Antibacterial activity (MIC), Ps. maltophilia IID-1275; conditions: Stenotrophomonas maltophilia, IID1275, Ps. maltophilia
Description: as §1

[2] = tested on: Str. faecalis, ATCC-19433; experiment: Antibacterial activity (MIC), Str. faecalis ATCC-19433; conditions: for MIC: Enterococcus faecalis, ATCC19433, Str. faecalis
Description: as §1

SMILES	MIC (S. aureus, 209P) [µg/mL]	MIC (Pr. mirabillis, IF0-3849) [µg/mL]	MIC (Ps. aeruginosa, 32121) [µg/mL]	MIC (Pr. vulgaris, 08601) [µg/mL]	MIC (S. flexneri, 2A 5503) [µg/mL]	MIC (E. coli, NIHJ) [µg/mL]	MIC (Str. pyogenes, G-36) [µg/mL]	Antibacterial Activity (MIC) (S. epidermidis, 56500; S. epidermidis) [µg/mL]	Antibacterial Activity (MIC) (Ps. aeruginosa, 32104; Ps. aeruginosa) [µg/mL]	MIC (Ser. marcescens, 10100) [µg/mL]	MIC [1] [µg/mL]	Antibacterial Activity (MIC) ([2]; Str. faecalis) [µg/mL]	MIC (S. epidermidis, 56500) [µg/mL]	MIC (Ps. aeruginosa, 32104) [µg/mL]	MIC [2] [µg/mL]
NC1CN(c2c(F)cc3c(=O)c(C(=O)O)cn(C4CC4)c3c2Cl)CC12CC2 (single isomer, unassigned) [Compound 32a, 7-(7-amino-5-azaspiro[2.4]heptan-5-yl)-8-chloro-1-cyclopropyl-6-fluoro-1,4-dihydro-4-oxoquinoline-3-carboxylic acid]	0.1 (≈ 0.255 µM)	0.1 (≈ 0.255 µM)	0.1 (≈ 0.255 µM)	≤ 0.05	≤ 0.05	≤ 0.05	0.78 (≈ 1.99 µM)	0.20	0.39	0.1 (≈ 0.255 µM)	0.1 (≈ 0.255 µM)	0.39	–	–	–
NC1CN(c2nc3c(cc2F)c(=O)c(C(=O)O)cn3C2CC2)CC12CC2 (stereo not drawn) [Compound 35, 7-(7-amino-5-azaspiro[2.4]heptan-5-yl)-1-cyclopropyl-6-fluoro-1,4-dihydro-4-oxo-1,8-naphthyridine-3-carboxylic acid]	0.1 (≈ 0.279 µM)	0.1 (≈ 0.279 µM)	≤ 0.05	≤ 0.05	≤ 0.05	≤ 0.05	0.78 (≈ 2.18 µM)	–	–	≤ 0.05	≤ 0.05	–	0.2 (≈ 0.558 µM)	0.1 (≈ 0.279 µM)	0.39 (≈ 1.09 µM)
CC(C)(C)n1cc(C(=O)O)c(=O)c2cc(F)c(N3CC(N)C4(CC4)C3)nc21 (stereo not drawn) [Compound 41b, 7-(7-Amino-5-azaspiro[2.4]heptan-5-yl)-1,4-dihydro-6-fluoro-1-(2-methyl-2-propyl)-4-oxo-1,8-naphthyridine-3-carboxylic acid]	≤ 0.05	0.2 (≈ 0.534 µM)	0.1 (≈ 0.267 µM)	0.1 (≈ 0.267 µM)	≤ 0.05	≤ 0.05	0.39 (≈ 1.04 µM)	–	–	0.1 (≈ 0.267 µM)	0.1 (≈ 0.267 µM)	–	0.1 (≈ 0.267 µM)	0.2 (≈ 0.534 µM)	0.2 (≈ 0.534 µM)
NC1CN(c2c(F)cc3c(=O)c(C(=O)O)cn(C4CC4)c3c2F)CC12CCC2 (stereo not drawn) [Compound 94]	≤ 0.05	0.1 (≈ 0.257 µM)	0.39 (≈ 1 µM)	≤ 0.05	≤ 0.05	≤ 0.05	0.39 (≈ 1 µM)	–	–	0.1 (≈ 0.257 µM)	0.2 (≈ 0.514 µM)	–	≤ 0.05	0.1 (≈ 0.257 µM)	0.2 (≈ 0.514 µM)
NC1CN(c2c(F)cc3c(=O)c(C(=O)O)cn(C4CC4)c3c2F)CC12CCCC2 (stereo not drawn) [Compound 95, 7-(4-amino-2-azaspiro[4.4]nonan-2-yl)-1-cyclopropyl-6,8-difluoro-4-oxo-1,4-dihydroquinoline-3-carboxylic acid]	≤ 0.05	≤ 0.05	0.2 (≈ 0.496 µM)	≤ 0.05	≤ 0.05	≤ 0.05	0.2 (≈ 0.496 µM)	–	–	0.1 (≈ 0.248 µM)	0.1 (≈ 0.248 µM)	–	0.1 (≈ 0.248 µM)	0.39 (≈ 0.967 µM)	0.2 (≈ 0.496 µM)
NC1CN(c2c(F)cc3c(=O)c(C(=O)O)cn(C4CC4)c3c2F)CC12CC2 (stereo not drawn) [Compound 31, 7-(7-Amino-5-azaspiro[2.4]heptan-5-yl)-1-cyclopropyl-6,8-difluoro-1,4-dihydro-4-oxoquinoline-3-carboxylic Acid]	≤ 0.05	≤ 0.05	≤ 0.05	≤ 0.05	≤ 0.05	≤ 0.05	0.39 (≈ 1.04 µM)	–	–	≤ 0.05	≤ 0.05	–	0.1 (≈ 0.266 µM)	0.1 (≈ 0.266 µM)	0.2 (≈ 0.533 µM)
O=C(O)c1cn(C2CC2)c2cc(N3CCNC4(CC4)C3)c(F)cc2c1=O [Compound 37, 1-Cyclopropyl-7-(4,7-diazaspiro[2.5]octan-7-yl)-6-fluoro-1,4-dihydro-4-oxoquinoline-3-carboxylic acid]	0.2 (≈ 0.56 µM)	≤ 0.05	0.2 (≈ 0.56 µM)	≤ 0.05	≤ 0.05	≤ 0.05	0.78 (≈ 2.18 µM)	–	–	0.1 (≈ 0.28 µM)	0.39 (≈ 1.09 µM)	–	0.39 (≈ 1.09 µM)	0.2 (≈ 0.56 µM)	0.78 (≈ 2.18 µM)
C[C@H]1COc2c(N3CC(N)C4(CC4)C3)c(F)cc3c(=O)c(C(=O)O)cn1c23 (stereo partly drawn) [Compound 36, 10-(7-Amino-5-azaspiro[2.4]heptan-5-yl)-9-fluoro-2,3-dihydro-3-(S)-methyl-7-oxo-7H-pyrido[1,2,3-de][1.4]-benzoxazine-6-carboxylic acid]	0.1 (≈ 0.268 µM)	0.1 (≈ 0.268 µM)	0.1 (≈ 0.268 µM)	≤ 0.05	≤ 0.05	≤ 0.05	0.39 (≈ 1.04 µM)	–	–	0.2 (≈ 0.536 µM)	0.39 (≈ 1.04 µM)	–	0.2 (≈ 0.536 µM)	0.2 (≈ 0.536 µM)	0.78 (≈ 2.09 µM)
